The record followed here is US10316371B2, “Screening methods for identifying specific Staphylococcus aureus inhibitors” (TRANA DISCOVERY, INC., priority 2011, dated 2019).

One test has as its system S. aureus ATCC 29213. As to the kind of experiment: Resistance passaging experiment. Type of test: cell-based. The note with it: for MIC: Staphylococcus aureus. The protocol:
(§1) Two compounds (#880 and #169) were tested in time-kill assays against S. aureus strain 29213. These compounds were then used to attempt to select for resistant variants by passaging at sub-MIC concentrations for 20 passages.
The selected strain for this experiment was S. aureus ATCC 29213. A frozen glycerol stock was streaked onto MH-II agar and grown overnight at 37° C. The next day, 3-5 colonies were picked and grown in 3 mL of MH-II broth at 37° C. with 200 rpm shaking for approximately 4 hours. A 2-fold microdilution (in round-bottom, 96-well plates) was made for each compound being tested. CLSI guidelines for broth microdilution were followed. Using the bacteria grown from the overnight colonies, each microdilution was inoculated at a final concentration of 5×10^5 colony forming units (CFU)/mL. The microdilutions were incubated at 37° C. for 16 to 20 hours, after which the minimal inhibitory concentration (MIC) of each was read visually. The MIC is defined as the lowest concentration of compound resulting in no visible bacterial growth. This activity is recorded as the MIC at Passage 0. The contents of the well in the next dilution lower in concentration than the MIC (i.e., ½ the MIC) was mixed with a micropipette and 50 μL was transferred to 3 mL of fresh MH-II broth. This was grown at 37° C. with 200 rpm shaking for approximately 4 hours, at which time the sample was turbid. A 1 mL aliquot of this sample was added to a cryovial containing 300 μL of glycerol. This was marked as passage 1, vortexed, than placed in a −80° C. freezer for storage. The rest of the culture was adjusted to a bacterial concentration of 1×10^6cfu/mL (OD600 of 0.004), which was then used to inoculate a microdilution of the same compound (final bacterial concentration of 5×10^5 cfu/mL). This was incubated at 37° C. for 16 to 20 hours. After that time the MIC was once again read and recorded as the MIC at Passage 1. This process was repeated through 20 passages. Ciprofloxacin was included as a control and an untreated sample was also passaged 20 times as a negative control.

Test [1] has as its system S. aureus specific Arg ASL (anticodon stem loop) RNA oligomer interaction with programmed ribosomes. The test is described as follows: Fluorescence polarization assay of Arg ASL / programmed ribosome complex (HTS and dose response). Format: binding, S. aureus Arg ASL; E. coli 70S ribosomes. The note with it: control compounds. The text has this: The assay requires the following materials: • Ribosomes—isolated from E. coli or S. aureus • fMet tRNA (Sigma or Chemical Block, Moscow) • mRNA (including the S-D sequence, the “box” sequence, the codon for methionine, and the codon for arginine that is specific for S. aureus, AGA, optionally with additional base pairs to the left of the S-D sequence and/or to the right of the codon for arginine) • Fluorescently labeled Arg ASL oliogomer • Buffer—HAM20,β • 384 well high binding micro titer plates (Matrix Technologies #4319, sold by Fischer Scientific as cat #50823855), or other appropriate plates for use in high throughput screening • Filtration (Sartorius Stedium 100 Kdalton VC 1042) or centrifugation for complex purification • EDTA—negative control (binding antagonist) • Neomycin—A-site binding enhancer (binding agonist)
A ribosome complex was prepared using the above materials and then purified prior to use in the assay. The prepared complex can be stored in concentrated form at −80° C. The complexes were diluted in buffer and dispensed onto plates. […] Fluorescence polarization was measured at approximately 4 hours after dispensing onto the micro-titer plates.
ASL^Arg was first heated for 2 min at 90° C. in water, after addition of 1/10 V of 10× buffer incubation continued on ice for at least 10 min. Prior to complex formation 70S ribosomes and tRNA were reactivated in buffer for 5 min at 45° C. followed by 10 min at 37° C.; mRNA was heated in buffer at 37° C. for 5 min. • (1000 μl×(2 μM E. coli 70S ribosomes+10 μM mRNA-Arg+4 μM tRNA^fmet)/HAM20,β→30 min @ 37° C.,+1000 μl×(0.2 μM neomycin+[…]))→20 min @ 37° C., overnight on ice • Final complex: (2000 pm P+2000 pm ASL)/2 ml=1 μM P+1 μM ASL HAM20,β:
Preparation of Complexes: The purified complex was diluted in ice cold HAM20,β such that the total fluorescence was approximately 2,000,000 units per 5 μL.
20 μl of the diluted complex was added to all 384 well plates (except for blank wells, which received 20 μL of HAM20 only, without complex) using Multidrop dispenser after which the plates were incubated at 25° C. for 4 hours (target 4.5 hours for middle of batch). Plates were then analyzed for fluorescence polarization in Analyst HT fluorescence plate reader and the following instrument settings:
The parallel and perpendicular fluorescence values of experimental wells were automatically corrected for the corresponding values obtained from the blank wells. The fluorescence polarization was calculated as following: P=(I−Ip)/(I+Ip), wherein Ip—is perpendicular fluorescence and I—is parallel fluorescence.
The percent of effect of experimental compounds was calculated as following: %-Inh=(P0−Pc)/(P0−P100)*100, wherein P0—is average polarization in 0%—inhibition control wells, P100—is average polarization in 100%—inhibition control wells, and Pc—is polarization in compound well.
The 3 sigma HTS hits were cherry picked and retested in 6 pt dose response format, using 3× serial dilution and the top nominal concentration of 100 uM.
The compounds were serially diluted in 10% DMSO and plated into 384 well plates (in a volume of 5 μL) to achieve the nominal final concentration raging from 100 μM to 0.4 μM. The plates received 20 μl of the diluted complex following incubation at 25° C. for 4 hours. Plates were then analyzed for fluorescence polarization as described above (see HTS section).
In parallel, the compounds were tested for auto-fluorescence. To this end, the compounds were plated (using the same dilution protocol) into 384 well plates. The plates received 20 μL of the HAM20 assay buffer only (without complex). The plates were incubated for 4 hrs and then were analyzed for fluorescence polarization as described above.
Background: In fluorescence polarisation assays a small probe gives low polarisation when free and higher when bound to something large.

The next test concerns S. aureus strain 29213. The test is described as follows: Time-kill experiments. Format: cell-based. The note with it: by 8 hours. The procedure: as §1
Twenty mL of MH-II media warmed to 37° C. was seeded with log-phase growth S. aureus strain 29213 at 1×10^6 cfu/mL in 50 mL erlenmeyer shake-flasks. Compound was added at 2× and 4× the MIC value. Negative controls (no drug) and positive drug controls (vancomycin at 2× and 4× the MIC) were included in the experiment. Flasks were shaken at 200 rpm and 37° C. Samples were taken at the times indicated (0, 2, 4, 6, 8 and 24 hrs post inoculation) and bacterial loads were quantified by limiting dilution assay.

For orientation: MIC means the least concentration at which growth counts as inhibited.

In brackets after ≈: the same amount, converted by molar mass. Where two headings read alike, the source gives them in different places.

Take `O=C(O)c1cn(C2CC2)c2cc(N3CCNCC3)c(F)cc2c1=O` [Ciprofloxacin]: the “MIC in S. aureus 29213” value in the test with S. aureus ATCC 29213 (Passage 0) is 0.5 µg/mL (≈ 1.51 µM); in the test on S. aureus ATCC 29213 (Passage 20, passaged at sub-MIC) it was greater than 256 µg/mL. In addition, the MIC in the test with S. aureus ATCC 29213 (ATCC29213, read-out: MIC in S. aureus 29213, Passage 0) was found to be 0.5 µg/mL (≈ 1.51 µM); in the test on S. aureus ATCC 29213 (ATCC29213, read-out: MIC in S. aureus 29213, Passage 1, passaged at sub-MIC) it was 1 µg/mL (≈ 3.02 µM); in the test with S. aureus ATCC 29213 (ATCC29213, read-out: MIC in S. aureus 29213, Passage 2, passaged at sub-MIC) it was 2 µg/mL (≈ 6.04 µM); in the test with S. aureus ATCC 29213 (ATCC29213, read-out: MIC in S. aureus 29213, Passage 3, passaged at sub-MIC), 2 µg/mL (≈ 6.04 µM); with S. aureus ATCC 29213 (ATCC29213, read-out: MIC in S. aureus 29213, Passage 4, passaged at sub-MIC) it was 2 µg/mL (≈ 6.04 µM); in the test with S. aureus ATCC 29213 (ATCC29213, read-out: MIC in S. aureus 29213, Passage 5, passaged at sub-MIC), 2 µg/mL (≈ 6.04 µM). Moreover, the MIC with S. aureus ATCC 29213 (ATCC29213, read-out: MIC in S. aureus 29213, Passage 6, passaged at sub-MIC) was 2 µg/mL (≈ 6.04 µM); in the test on S. aureus ATCC 29213 (ATCC29213, read-out: MIC in S. aureus 29213, Passage 7, passaged at sub-MIC), 2 µg/mL (≈ 6.04 µM); with S. aureus ATCC 29213 (ATCC29213, read-out: MIC in S. aureus 29213, Passage 8, passaged at sub-MIC), 4 µg/mL (≈ 12.1 µM); in the test on S. aureus ATCC 29213 (ATCC29213, read-out: MIC in S. aureus 29213, Passage 9, passaged at sub-MIC), 8 µg/mL (≈ 24.1 µM); in the test on S. aureus ATCC 29213 (ATCC29213, read-out: MIC in S. aureus 29213, Passage 10, passaged at sub-MIC), 8 µg/mL (≈ 24.1 µM); in the test with S. aureus ATCC 29213 (ATCC29213, read-out: MIC in S. aureus 29213, Passage 11, passaged at sub-MIC) it was 16 µg/mL (≈ 48.3 µM). For the same compound, the MIC in the test on S. aureus ATCC 29213 (ATCC29213, read-out: MIC in S. aureus 29213, Passage 12, passaged at sub-MIC) was found to be 16 µg/mL (≈ 48.3 µM); with S. aureus ATCC 29213 (ATCC29213, read-out: MIC in S. aureus 29213, Passage 13, passaged at sub-MIC) it was 32 µg/mL (≈ 96.6 µM); in the test on S. aureus ATCC 29213 (ATCC29213, read-out: MIC in S. aureus 29213, Passage 14, passaged at sub-MIC) it was 32 µg/mL (≈ 96.6 µM); in the test with S. aureus ATCC 29213 (ATCC29213, read-out: MIC in S. aureus 29213, Passage 15, passaged at sub-MIC) it was 32 µg/mL (≈ 96.6 µM); with S. aureus ATCC 29213 (ATCC29213, read-out: MIC in S. aureus 29213, Passage 16, passaged at sub-MIC) it was 64 µg/mL (≈ 193 µM); in the test with S. aureus ATCC 29213 (ATCC29213, read-out: MIC in S. aureus 29213, Passage 17, passaged at sub-MIC), 128 µg/mL (≈ 386 µM). The MIC in the test with S. aureus ATCC 29213 (ATCC29213, read-out: MIC in S. aureus 29213, Passage 18, passaged at sub-MIC) was 128 µg/mL (≈ 386 µM); in the test with S. aureus ATCC 29213 (ATCC29213, read-out: MIC in S. aureus 29213, Passage 19, passaged at sub-MIC), 256 µg/mL (≈ 773 µM); in the test on S. aureus ATCC 29213 (ATCC29213, read-out: MIC in S. aureus 29213, Passage 20, passaged at sub-MIC), greater than 256 µg/mL; in the test on S. aureus ATCC 29213 (ATCC29213, read-out: MIC in S. aureus 29213, second Passage 10 line of Table 4 (untreated culture passaged 10 times)) it was 0.5 µg/mL (≈ 1.51 µM); in the test with S. aureus ATCC 29213 (ATCC29213, read-out: MIC in S. aureus 29213, second Passage 20 line of Table 4 (untreated culture passaged 20 times)) it was 0.5 µg/mL (≈ 1.51 µM). In the test on S. aureus ATCC 29213 (passaging at sub-MIC concentration, 20 passages), the “increase of MIC over 20 passages” value was greater than 512 fold.

As for `O=C(O)CN(CCN(CC(=O)O)CC(=O)O)CC(=O)O` [EDTA, reference compound], the “effect on complex formation (fluorescence polarization versus time, FIG. 11)” value in test [1] is reported as “inhibitor of complex formation”.

For the compound `CN[C@H](CC(C)C)C(=O)N[C@H]1C(=O)N[C@@H](CC(N)=O)C(=O)N[C@H]2C(=O)N[C@H]3C(=O)N[C@H](C(=O)N[C@H](C(=O)O)c4cc(O)cc(O)c4-c4cc3ccc4O)[C@H](O)c3ccc(c(Cl)c3)Oc3cc2cc(c3O[C@@H]2O[C@H](CO)[C@@H](O)[C@H](O)[C@H]2O[C@H]2C[C@](C)(N)[C@H](O)[C@H](C)O2)Oc2ccc(cc2Cl)[C@H]1O` [Vancomycin, reference compound], in the test with S. aureus strain 29213 (2× the MIC), the “reduction of bacterial counts” value was 2.5 log10. Also, the “reduction of bacterial counts (killing)” value in the test on S. aureus strain 29213 (4× the MIC) was found to be 2.5 log10.

For Neomycin [reference compound], the “effect on complex formation (fluorescence polarization versus time, FIG. 11)” value in test [1] is reported as “stabilizer of complex formation”.
